Patent US7342122B2, “Bisphosphonate complexes” (priority 2003, dated 2008)

Legend:
SF-268 = experiment: Cell growth inhibition, brain cancer cell line SF-268; type: cell-based; conditions: SF-268, brain cancer cell line
Experimental: (§1) KB cells were purchased from Human Science Research Resource Bank (Osaka, Japan). The cells were cultured in Earle's MEM (GIBCO BRL) containing 10% FBS (Bio Whittaker) at 37° C. under 5% CO2. After 24 hours the test compounds were added to the cells at the indicated concentrations. 72 hours later the cells were stained with tripan blue and counted manually. IC50 is calculated as the concentration (aqueous solution) of complex required to inhibit growth of cells by 50%.
(§2) In a similar fashion a representative number of examples of compounds of the invention were tested for their ability to inhibit the growth/proliferation of cell types representing a number of different cancers. The results are provided in Tables 4-13, below, which provide the Inhibition Constants (IC50, μM) for each compound across various cell lines.

A549 = experiment: Cell growth inhibition, lung cancer cell line A549; type: cell-based
Experimental: as §1, §2

SNB-78 = experiment: Cell growth inhibition, brain cancer cell line SNB-78; type: cell-based; conditions: SNB-78, brain cancer cell line
Experimental: as §1, §2

NCI-H226 = experiment: Cell growth inhibition, lung cancer cell line NCI-H226; type: cell-based
Experimental: as §1, §2

LOX-IMVI = experiment: Cell growth inhibition, melanoma cell line LOX-IMVI; type: cell-based
Experimental: as §1, §2

HBC-5 = experiment: Cell growth inhibition, breast cancer cell line HBC-5; type: cell-based; conditions: HBC-5, breast cancer cell line
Experimental: as §1, §2

KB cells = experiment: In vitro assay, cell growth inhibition (KB cells); type: cell-based; conditions: 72 hours
Experimental: as §1

St-4 = experiment: Cell growth inhibition, human stomach cancer St-4; type: cell-based; conditions: St-4, human stomach cancer
Experimental: as §1, §2

MCF-7 = experiment: Cell growth inhibition, breast cancer cell line MCF-7; type: cell-based; conditions: MCF-7, breast cancer cell line
Experimental: as §1, §2

MKN28 = experiment: Cell growth inhibition, human stomach cancer MKN28; type: cell-based
Experimental: as §1, §2

MKN45 = experiment: Cell growth inhibition, human stomach cancer MKN45; type: cell-based
Experimental: as §1, §2

OVCAR-4 = experiment: Cell growth inhibition, ovarian cancer cell line OVCAR-4; type: cell-based; conditions: OVCAR-4, ovarian cancer cell line
Experimental: as §1, §2

HCT-15 = experiment: Cell growth inhibition, colon cancer cell line HCT-15; type: cell-based; conditions: HCT-15, colon cancer cell line
Experimental: as §1, §2

HBC-4 = experiment: Cell growth inhibition, breast cancer cell line HBC-4; type: cell-based; conditions: HBC-4, breast cancer cell line
Experimental: as §1, §2

DU-145 = experiment: Cell growth inhibition, prostatic cancer DU-145; type: cell-based, human; conditions: DU-145, prostatic cancer
Experimental: as §1, §2

MKN1 = experiment: Cell growth inhibition, human stomach cancer MKN1; type: cell-based
Experimental: as §1, §2

MKN74 = experiment: Cell growth inhibition, human stomach cancer MKN74; type: cell-based
Experimental: as §1, §2

HCT-116 = experiment: Cell growth inhibition, colon cancer cell line HCT-116; type: cell-based; conditions: HCT-116, colon cancer cell line
Experimental: as §1, §2

SF-295 = experiment: Cell growth inhibition, brain cancer cell line SF-295; type: cell-based; conditions: SF-295, brain cancer cell line
Experimental: as §1, §2

OVCAR-3 = experiment: Cell growth inhibition, ovarian cancer cell line OVCAR-3; type: cell-based; conditions: OVCAR-3, ovarian cancer cell line
Experimental: as §1, §2

MDA-MB-231 = experiment: Cell growth inhibition, breast cancer cell line MDA-MB-231; type: cell-based; conditions: MDA-MB-231, breast cancer cell line
Experimental: as §1, §2

OVCAR-8 = experiment: Cell growth inhibition, ovarian cancer cell line OVCAR-8; type: cell-based; conditions: OVCAR-8, ovarian cancer cell line
Experimental: as §1, §2

PC-3 = experiment: Cell growth inhibition, prostatic cancer PC-3; type: cell-based; conditions: PC-3, prostatic cancer
Experimental: as §1, §2

DMS273 = experiment: Cell growth inhibition, lung cancer cell line DMS273; type: cell-based
Experimental: as §1, §2

SF-539 = experiment: Cell growth inhibition, brain cancer cell line SF-539; type: cell-based; conditions: SF-539, brain cancer cell line
Experimental: as §1, §2

[1] = tested on: all cell types (cancer cell lines of Tables 4-12); experiment: Cell growth inhibition, mean over all cell types of the panel; type: cell-based; conditions: mean over all cell lines of Tables 4-12
Experimental: as §1, §2

NCI-H460 = experiment: Cell growth inhibition, lung cancer cell line NCI-H460; type: cell-based
Experimental: as §1, §2

RXF-631L = experiment: Cell growth inhibition, renal cancer RXF-631L; type: cell-based
Experimental: as §1, §2

HCC2998 = experiment: Cell growth inhibition, colon cancer cell line HCC2998; type: cell-based
Experimental: as §1, §2

MKN7 = experiment: Cell growth inhibition, human stomach cancer MKN7; type: cell-based
Experimental: as §1, §2

SK-OV-3 = experiment: Cell growth inhibition, ovarian cancer cell line SK-OV-3; type: cell-based; conditions: SK-OV-3, ovarian cancer cell line
Experimental: as §1, §2

KM-12 = experiment: Cell growth inhibition, colon cancer cell line KM-12; type: cell-based; conditions: KM-12, colon cancer cell line
Experimental: as §1, §2

U251 = experiment: Cell growth inhibition, brain cancer cell line U251; type: cell-based
Experimental: as §1, §2

DMS114 = experiment: Cell growth inhibition, lung cancer cell line DMS114; type: cell-based
Experimental: as §1, §2

BSY-1 = experiment: Cell growth inhibition, breast cancer cell line BSY-1; type: cell-based; conditions: BSY-1, breast cancer cell line
Experimental: as §1, §2

ACHN = experiment: Cell growth inhibition, renal cancer ACHN; type: cell-based
Experimental: as §1, §2

SNB-75 = experiment: Cell growth inhibition, brain cancer cell line SNB-75; type: cell-based; conditions: SNB-75, brain cancer cell line
Experimental: as §1, §2

NCI-H522 = experiment: Cell growth inhibition, lung cancer cell line NCI-H522; type: cell-based
Experimental: as §1, §2

NCI-H23 = experiment: Cell growth inhibition, lung cancer cell line NCI-H23; type: cell-based
Experimental: as §1, §2

HT-29 = experiment: Cell growth inhibition, colon cancer cell line HT-29; type: cell-based; conditions: HT-29, colon cancer cell line
Experimental: as §1, §2

OVCAR-5 = experiment: Cell growth inhibition, ovarian cancer cell line OVCAR-5; type: cell-based; conditions: OVCAR-5, ovarian cancer cell line
Experimental: as §1, §2

SMILES: [Cl-].[Cl-].c1cc[n+]2c(c1)-c1cccc[n+]1[Pd-2]21[NH2+]CC[NH+]1Cc1c2ccccc2cc2ccccc12 [Example 5, [Pd(bpy)(Aten)]Cl2]
- log10 IC50 (M) (SF-268): -5.27
- log10 IC50 (M) (A549): -4.88
- log10 IC50 (M) (SNB-78): -4.67
- log10 IC50 (M) (NCI-H226): -5.41
- log10 IC50 (M) (LOX-IMVI): -5.15
- log10 IC50 (M) (HBC-5): -4.98
- KB cells remaining/growth in percent (Table 2, untitled) (KB cells; 1 μg/ml): 86.9%
- KB cells remaining/growth in percent (Table 2, untitled) (KB cells; 3 μg/mL): 81.4%
- KB cells remaining/growth in percent (Table 2, untitled) (KB cells; 10 μg/mL): 75.1%
- KB cells remaining/growth in percent (Table 2, untitled) (KB cells; 30 μg/mL): 44.7%
- KB cells remaining/growth in percent (Table 2, untitled) (KB cells; 100 μg/mL): 12.3%
- IC50 (KB cells; concentration to inhibit growth of cells by 50%): 36 µM
- log10 IC50 (M) (St-4): -5.12
- log10 IC50 (M) (MCF-7): -5.28
- log10 IC50 (M) (MKN28): -4.86
- log10 IC50 (M) (MKN45): -5.08
- log10 IC50 (M) (OVCAR-4): -5.06
- log10 IC50 (M) (HCT-15): -5.14
- log10 IC50 (M) (HBC-4): -4.91
- log10 IC50 (M) (DU-145): -5.1
- log10 IC50 (M) (MKN1): -5.28
- log10 IC50 (M) (MKN74): -5.33
- log10 IC50 (M) (HCT-116): -5.38
- log10 IC50 (M) (SF-295): -5.31
- log10 IC50 (M) (OVCAR-3): -4.95
- log10 IC50 (M) (MDA-MB-231): -5.29
- log10 IC50 (M) (OVCAR-8): -5.13
- log10 IC50 (M) (PC-3): -4.9
- log10 IC50 (M) (DMS273): -5.24
- log10 IC50 (M) (SF-539): -5.36
- log10 IC50 (M) [1]: -5.18
- log10 IC50 (M) (NCI-H460): -5.86
- log10 IC50 (M) (RXF-631L): -5.43
- log10 IC50 (M) (HCC2998): -5.54
- log10 IC50 (M) (MKN7): -5.04
- log10 IC50 (M) (SK-OV-3): -5.1
- log10 IC50 (M) (KM-12): -5.22
- log10 IC50 (M) (U251): -5
- log10 IC50 (M) (DMS114): -5.28
- log10 IC50 (M) (BSY-1): -5.34
- log10 IC50 (M) (ACHN): -5.22
- log10 IC50 (M) (SNB-75): -5.16
- log10 IC50 (M) (NCI-H522): -5.22
- log10 IC50 (M) (NCI-H23): -4.88
- log10 IC50 (M) (HT-29): -5.25
- log10 IC50 (M) (OVCAR-5): -5.3
